Measured values taken from patent publication US6759396B1, “Compositions based on a synergistic mixture of at least one VDR ligand and a retinoid” (Centre International de Recherches Dermatalogiques Galderma …, priority 1995, dated 2004).

Tests used:
[1] = tested on: RARγ receptors relative to RARα receptors; experiment: dissociation constants for RAR receptors (standard tests from cited references); assay type: binding, human; details: selectivity for RARγ relative to RARα
Procedure: The dissociation constants are determined by means of tests which are standard to those skilled in the art. These tests are described in particular in the following references: (1) “Selective Synthetic Ligands for Nuclear Retinoic Acid Receptor Subtypes” in RETINOIDS, Progress in Research and Clinical Applications, Chapter 19 (pp 261-267), Marcel Dekker Inc., published by Maria A. Livrea and Lester Packer; (2) “Synthetic Retinoids: Receptor Selectivity and Biological Activity” in Pharmacol. Skin, Basle, Karger, 1993, Volume 5, pp. 117-127; (3) “Selective Synthetic Ligands for Human Nuclear Retinoic Acid Receptors” in Skin Pharmacology, 1992, Vol. 5, pp. 57-65; (4) “Identification of Synthetic Retinoids with Selectivity for Human Nuclear Retinoic Acid Receptor-γ” in Biochemical and Biophysical Research Communications, Vol. 186, No. 2, July 1992, pp. 977-983; (5) “Selective High Affinity RAR-α or RAR-β Retinoic Acid Receptor Ligands” in Mol. Pharmacol., Vol. 40, pp. 556-562.
In an advantageous manner, the retinoids which are selective for the RARγ receptors relative to the RARα receptors have an RARα/RARγ dissociation constant ratio greater than or equal to 8.

[2] = tested on: keratinocytes; experiment: keratinocyte proliferation, XTT assay (Cell proliferation kit II); assay type: cell-based

Row | RARα/RARγ dissociation constant ratio [1] | SMILES | synergism of inhibition on keratinocyte proliferation ([2]; in combination with 1,25-dihydroxyvitamin D3, identical conditions) | inhibition on keratinocyte proliferation ([2]; in combination with 1,25-dihydroxyvitamin D3, 4 days culture, FIGS. 1 and 2)
1 | 36.6 | CC1(C)CCC(C)(C)c2cc(C(O)C#Cc3ccc(C(=O)O)c(O)c3)ccc21 (centres unmarked) [2-hydroxy-4-[3-hydroxy-3-(5,6,7,8-tetrahydro-5,5,8,8-tetramethyl-2-naphthyl)-1-propynyl]benzoic acid] | – | –
2 | 84.4 | COc1ccc(-c2ccc3cc(C(=O)O)ccc3c2)cc1C12CC3CC(CC(C3)C1)C2 [6-[3-(1-adamantyl)-4-methoxyphenyl]-2-naphthoic acid] | – | –
3 | – | CC1=C(/C=C/C(C)=C/C=C/C(C)=C/C(=O)O)C(C)(C)CCC1 [all-trans retinoic acid, reference compound] | No synergism | –
4 | 8.5 | O=C(O)c1ccc2cc(-c3ccc(O)c(C45CC6CC(CC(C6)C4)C5)c3)ccc2c1 [compound 1, 6-[3-(1-adamantyl)-4-hydroxyphenyl]-2-naphthoic acid] | – | very good inhibition
